Reference: patent US20260256818A1, “NOVEL CO-DRUG, CO-ADMINISTRATION, AND SEQUENTIAL ADMINISTRATION OF BISPECIFIC RBP4/TTR LIGAND AND C20-D3-RETINOL FOR ELIMINATION OF MECHANISM-BASED OCULAR ADVERSE EFFECTS IN TREATING MACULAR DEGENERATION AND TTR AMYLOIDOSIS” (The Trustees of Columbia University in the City of New York, priority 2023, published 2026)

Experiments:
[1] = tested on: lipofuscin bisretinoid synthesis; conditions: Abca4-/- mice; cited from earlier work
RBP4 [2] = target: T1, RBP4 (Mus musculus, UniProt Q00724); conditions: rodents; cited from earlier work
T1 construct: circulating RBP4 plasma levels in rodents; host or cells: plasma/serum of rodents

RBP4 [3] = conditions: in vivo; cited from earlier work
rhodopsin = test: Rhodopsin measured spectrophotometrically in retinal extracts of dark-adapted mice after 7 days oral dosing; assay type: in vivo; conditions: wild-type Balb/c mice, 25 mg/kg daily oral (chow), n=8
Description: FIG. 14. Effects of C20-D3-retinyl acetate on rhodopsin levels in ACPHS-52-treated Balb/c mice. Rhodopsin was measured spectrophotometrically in retinal extracts (n=8) from dark-adapted treated and control mice. Treated mice were given 7 daily oral dose of 25 mg/kg ACPHS-52 or the same dose of ACPHS-52 along with 3.3 mg/kg C20-D3-retinyl acetate. Untreated control mice were kept on standard diet.
ACPHS-52 was previously identified and described as a compound that exemplifies a novel class of bispecific ligands that act as both RBP4 antagonists and kinetic stabilizers of TTR tetramers (Cioffi, C. L. et al. 2020). Thus, ACPHS-52 was used as a representative “first component” of the present disclosure in order to assess the feasibility of the co-drug strategy. Accordingly, an experiment was conducted to determine whether partial reduction in functional rhodopsin (opsin with conjugated 11-cis-retinal) induced by oral ACPHS-52 in mice can be compensated by co-administration with C20-D3-retinyl acetate.
The experiment was conducted in Balb/c mice. Three groups of mice were used: control untreated mice; mice treated with ACPHS-52; and mice treated with the ACPHS-52 plus C20-D3-retinyl acetate combination. […] Rhodopsin was measured spectrophotometrically in retinal extracts (n=8) from dark-adapted treated and control mice using a previously published protocol (Racz, B. et al. 2018).

TTR tetramers = TTR tetramers (Homo sapiens, UniProt P02766); conditions: cited from earlier work
TTR = conditions: ATTR-CM patients with symptomatic, chronic heart failure, Phase III; cited from earlier work
[4] = patients treated for TTR amyloidosis; cited from earlier work
[5] = cited from earlier work
[6] = Phase 2, dry AMD patients; cited from earlier work
[7] = long-term use, cancer patients; cited from earlier work
RBP4 [8] = conditions: non-human primates, oral administration; cited from earlier work

O=C(O)c1ccccc1NC(=O)N1CCC(c2ccccc2C(F)(F)F)CC1 [Compound A1120, A1120]
effect on retinal bisretinoid accumulation/synthesis [1]: reduce retinal bisretinoid accumulation
lowering of circulating RBP4 plasma levels (RBP4 [2]): > 70%

Cc1cc(C(=O)O)nc(N2CCC(COc3ccccc3C(F)(F)F)C2)n1 (stereo not shown) [ACPHS-52]
effect on serum RBP4 (RBP4 [3]): pronounced reduction in serum RBP4
reduction in rhodopsin in comparison to untreated mice (rhodopsin): 3 fold
effect on TTR tetramers (TTR tetramers): stabilization of TTR tetramers

Cc1n[nH]c(C)c1CCCOc1cc(C(=O)O)ccc1F [AG10]
stabilization of TTR (TTR): near-complete stabilization of TTR

patisiran
ocular adverse effect [4]: symptoms of night blindness in a subset of patients

O=C(O)c1ccc2nc(-c3cc(Cl)cc(Cl)c3)oc2c1 [tafamidis]
patients who do not respond [5]: Approximately 30%

CC1=C(/C=C/C(C)=C/C=C/C(C)=C/C(=O)Nc2ccc(O)cc2)C(C)(C)CCC1 [fenretinide]
drug-treated patients with reversible reduction in dark adaptation [6]: ~ 10%
yearly prevalence of transient and reversible ocular AEs such as diminished dark adaptation [7]: 5.8-6.7%

Cc1cc(C(=O)O)nc(N2C[C@H]3CC(c4ccccc4C(F)(F)F)C[C@H]3C2)n1 (stereo partly shown) [Compound 8, BPN-14136]
effect on retinal bisretinoid accumulation/synthesis [1]: inhibited lipofuscin bisretinoid synthesis
effect on serum RBP4 levels (RBP4 [8]): robustly lowered serum RBP4 levels

[2H]C([2H])([2H])C(/C=C/C=C(C)/C=C/C1=C(C)CCCC1(C)C)=C\COC(C)=O [C20-D3-retinyl acetate]
effect on retinal bisretinoid accumulation/synthesis [1]: effective in inhibiting bisretinoid synthesis
